Columns and labels:
cytochrome P450 1A2 = details: Hep G2/C3A-cells; cited from earlier work
Hep G2/C3A-cells = details: 0.03 mM added to the medium; experimental stage
Experimental: Synthesis Capacity, for Example Micro-Albumin and Other Protein Synthesis of the Hep G2/C3A Cells (13).
The HepG2/C3A-cells are seeded in 24 well cell culture plates in a concentration of 250,000 cells/well for three days and 0.5 ml plasma from test persons+0.25 ml medium is added. The cells are then rinsed once with medium and after that are incubated with fresh medium (1 ml) for three days. After that micro albumin is determined nephelometrically from 0.2 ml cell culture medium and duplicated (+medium control). Each test batch with plasma from test persons is also duplicated.
Consequently the test period can also be shortened to 48 hours and the cells release measurable quantities of fibrinogen and transferrine (plasma proteins) that can be measured and duplicated in 200 μl cell culture medium.

Row | Structure (SMILES) | activity of cytochrome P450 1A2 after induction, relative to the initial value (cytochrome P450 1A2) | synthesis capacity of the Hep G2/C3A-cells (Hep G2/C3A-cells)
1 | Cc1ccc2cc3c(ccc4ccccc43)c3c2c1CC3 [methylcholanthrene, 3-methylcholanthren] | 40 times the initial value | –
2 | NCCC[C@H](N)C(=O)O.O=C(O)CCC(=O)C(=O)O [ornithine alpha-cetoglutarates] | – | increased

Reference: US20090061470A1, “Use of Human Hepatocytes for Determining Liver Function and Liver Regeneration” (priority 2006, published 2009)
